Structures are written as SMILES.

This assay has as its system S. aureus 29213 infection in leukopenic female BDF1 mice. The assay is described as follows: protective effect against S. aureus infection in leukopenic mice (Example 3). In kind it is in vivo, mouse. As for the experimental part:
S. aureus 29213 obtained from American Type Culture Collection (ATCC) (Rockville, Md.) was used to induce infections in leukopenic female BDF1 mice (20-22 g). S. aureus were cultured at 37° C. in Tryptic Soy broth until the mid-logarithmic phase of growth (optical density at 600 nm=0.3), harvested, and washed with PBS. The number of bacteria was enumerated by serial dilution with PBS, plating onto blood agar, and counting colony-forming units (CFU) 48 hours after incubation at 37° C. The suspension was adjusted to […].
Mice were rendered leukopenic by i.p. injection of CPM at 200 mg/kg. A lethal dose (LD) of S. aureus was determined by intravenous injections of 1×10^3 to 1×10^8 CFU to groups of 10 mice 4 days after CPM treatment. 10-day survivors were enumerated, and the LD95 of S. aureus was calculated by Probit analysis. Treatment with VTP 194310 (at 1 mg/kg) was started one day before CPM and continued for 3 more days. Four days after CPM, the animals were infected intravenously with 4.1 and 2.5×10^6 CFU of S. aureus in 200 μl of PBS. Surviving animals were recorded daily for 14 days after the challenge. […] All experiments were performed in compliance with relevant laws and institutional guidelines, and were approved by the Animal Care and Use Committee.

With `CCc1ccc(C2=CC(C)(C)Sc3ccc(C#Cc4ccc(C(=O)O)cc4)cc32)cc1` [VTP 194310, 4-[[4-(4-ethylphenyl)-2,2-dimethyl-(2H)-thiochromen-6-yl]-ethynyl]-benzoic acid], the “protective effect against S. aureus infection compared to controls” value (Logrank p=0.0031 (4.1×10^6 CFU), p<0.0001 (2.5×10^6 CFU)) was “very significant protective effect”. The mice alive (day 10, each of the doses of S. aureus (4.1 and 2.5×10^6 CFU), 1 mg/kg days −1 to 2) came to 83%; the mice alive (day 14, 2.5×10^6 CFU S. aureus) was determined as 67%; the mice alive (day 14, higher dose of bacteria (4.1×10^6 CFU)) is 42%.

(Values after patent publication US9271946B2, “Use of a RAR antagonist or inverse agonist for the treatment of chemotherapy and/or radiation therapy side effects” (IO Therapeutics, Inc., priority 2006, dated 2016).)
